Experimental data published in PMC7140460, “Fluorinated Galactoses Inhibit Galactose-1-Phosphate Uridyltransferase and Metabolically Induce Galactosemia-like Phenotypes in HEK-293 Cells” (Cells, 2020).

Target: T1, recombinant hGALT (human galactose-1-phosphate uridyltransferase) (Homo sapiens, UniProt P07902)
T1 construct: gene GALT; synthetic gene in pET-15b (NdeI-BamHI, insert 1149 bp), His-tagged, E. coli BL21(DE3)-RIPL, Ni-NTA purified; tag removal not mentioned
Experiment: coupled PGM/G6PDH assay, NADPH absorbance at […] nm
Assay type: biochemical

T1 sequence (P07902 whole entry): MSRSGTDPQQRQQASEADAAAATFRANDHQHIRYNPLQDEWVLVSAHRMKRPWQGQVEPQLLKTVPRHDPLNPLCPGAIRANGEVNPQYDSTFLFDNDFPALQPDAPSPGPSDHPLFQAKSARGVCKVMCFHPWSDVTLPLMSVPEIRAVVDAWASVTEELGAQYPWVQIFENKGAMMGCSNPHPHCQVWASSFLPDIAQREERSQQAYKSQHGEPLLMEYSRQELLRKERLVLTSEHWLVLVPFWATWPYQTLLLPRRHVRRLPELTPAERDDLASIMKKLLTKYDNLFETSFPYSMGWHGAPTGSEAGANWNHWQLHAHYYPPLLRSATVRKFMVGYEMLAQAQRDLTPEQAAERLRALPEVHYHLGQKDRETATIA

Ki: 900 µM
Structure (SMILES): O=P(O)(O)O[C@H]1O[C@H](CO)[C@H](O)[C@H](O)[C@H]1F [F-Gal-1-P, 2-fluoro-2-deoxy-galactose-1-phosphate]
